# Data from patent US7666639B2, “Plant deoxyribonucleoside kinase enzymes and their use” (priority 2002, dated 2010).
# Experiments:
# [1] = test system: KY895 cells transformed with pGEX-2T; test: LD100 for growth of transformed KY895 on nucleoside analog plates, pGEX-2T; format: cell-based, E. coli; details: transformant pGEX-2T; M9 plates, 24 hours at 37° C.
# Procedure: (§1) Deoxyribonucleoside kinases are of interest as suicide-genes to be used in gene-mediated therapy of cancer or viral infections. In this example the potential of the plant kinases of the invention to convert different nucleoside analogs are compared to that of the human Herpes simplex virus type 1 thymidine kinase (HSV1-TK) in a bacterial test system.
# (§2) The experiment was carried out essentially as described by Knecht et al. [Knecht W, Munch-Petersen B and Piskur J: Identification of residues involved in the specificity and regulation of the highly efficient multisubstrate deoxyribonucleoside kinase from Drosophila melanogaster; J. Mol. Biol. 2000 301 827-837]. Briefly, overnight cultures of transformed KY895 were diluted 200-filed in 10% glyercol and 2 μl drops of the dilutions were spotted on M9 minimal medium plates [Ausubel F, Brent R, Kingston R E, Moore D D, Seidman J G, Smith J A & Struhl K (Eds.): Short protocols in molecular biology; 3rd edition (1995) pp. 1-2, Wiley, USA] supplemented with 0.2% glucose, 40 μg/ml isoleucine, 40 μg/ml valine, 100 μg/ml ampicillin and with or without nucleoside analogs. Growth was inspected visually after 24 hours of incubation at 37° C.
# [2] = test system: KY895 cells transformed with pGEX-2T-TOM-dCK/dGK; test: LD100 for growth of transformed KY895 on nucleoside analog plates, pGEX-2T-TOM-dCK/dGK; format: cell-based, E. coli
# Procedure: as §1, §2
# [3] = test system: KY895 cells transformed with pGEX-2T-TOM-ΔNdCK/dGK; test: LD100 for growth of transformed KY895 on nucleoside analog plates, pGEX-2T-TOM-ΔNdCK/dGK; format: cell-based, E. coli
# Procedure: as §1, §2
# [4] = test system: KY895 cells transformed with pGEX-2T-TOM-dCK/dGKΔC; test: LD100 for growth of transformed KY895 on nucleoside analog plates, pGEX-2T-TOM-dCK/dGKΔC; format: cell-based, E. coli; details: transformant pGEX-2T-TOM-dCK/dGKΔC; M9 plates, 24 hours at 37° C.
# Procedure: as §1, §2
# [5] = test system: KY895 cells transformed with pGEX-2T-TOM-ΔNdCK/dGKΔC; test: LD100 for growth of transformed KY895 on nucleoside analog plates, pGEX-2T-TOM-ΔNdCK/dGKΔC; format: cell-based, E. coli; details: transformant pGEX-2T-TOM-ΔNdCK/dGKΔC; M9 plates, 24 hours at 37° C.
# Procedure: as §1, §2
# [6] = test system: KY895 cells transformed with pGEX-2T-AT-dCK/dGK; test: LD100 for growth of transformed KY895 on nucleoside analog plates, pGEX-2T-AT-dCK/dGK; format: cell-based, E. coli
# Procedure: as §1, §2
# [7] = test system: KY895 cells transformed with pGEX-2T-HSV-TK; test: LD100 for growth of transformed KY895 on nucleoside analog plates, pGEX-2T-HSV-TK; format: cell-based, E. coli; details: transformant pGEX-2T-HSV-TK; M9 plates, 24 hours at 37° C.
# Procedure: as §1, §2
# [8] = test system: Glioblastoma U-118-MG cells, parental; test: Cell proliferation assay - cytotoxicity (XTT), U-118-MG parental; format: cell-based; details: Homo sapiens, 96-120 hours of drug exposure
# Procedure: (§3) Human breast MCF-7 (ATCC HTB-22) and Glioblastoma U-118-MG (ATCC HTB-15) cancer cells were purchased from the American Type Culture Collection. Cells were cultured in RPMI, E-MEM or D-MEM (Cambrex, Bio Whittaker Cat. No. 12-115-F, 12-611 and 12-741-F) with 10% (v/v) Australian originated fetal calf serum (Cambrex, Bio Whittaker Cat. No. 12-611) and 1 ml/l of Gentamicin (Cambrex, Bio Whittaker Cat. No. 17-518). Cells were grown at 37° C. in a humidified incubator with a gas phase of 5% CO2.
# (§4) Cells were plated at densities range of 1.500-3.500 cells/well in 96-well plates coated with Poly-L-lysine (Sigma Cat. No. P6282) Gemcitabine (obtained from Orifarm A/S—DK) was added after 24 hours of incubation at 37° C., 5% CO2, and the medium containing the nucleoside analog. Each experiment was performed in four replicates. Cell survival was assayed after 96-120 hours of drug exposure, by XTT cell proliferation kit (X) kit II, Roche Cat. No. 1 465 015). […] The IC50 value of the investigated drug/compound was calculated as the mean of these experiments using SigmaPlot®) (SPSS Science, Dyrberg Traiding—DK).
# (§5) The sensitivity of the untransduced cells, and of the cells transduced with either the retroviral vector alone ore the vector containing plant kinases for Gemcitabine was determined.
# (§6) The cytotoxicity (IC50 value) was determined after 96-120 hours of drug exposure.
# [9] = test system: Glioblastoma U-118-MG cells transduced with PZG190 (AtdCGK); test: Cell proliferation assay - cytotoxicity (XTT), U-118-MG transduced with PZG190; format: cell-based; details: Homo sapiens; U-118-MG PZG190; 96-120 hours of drug exposure
# Procedure: (§7) Two constructs were obtained: AtdCGK (PZG190) and TomdCGK (PZG193). LCXSN alone was used as a control.
# (§8) The virus containing medium was subsequently used to transduce the cancer cell lines with a MOI of 5.
# as §3, with “CO2. […]” for “CO2.”
# as §4, with “analog.” for “analog. Each experiment was performed in four replicates. Cell survival was assayed after 96-120 hours of drug exposure, by XTT cell proliferation kit (X) kit II, Roche Cat. No. 1 465 015).”
# as §5, §6
# [10] = test system: breast MCF-7 cells, parental; test: Cell proliferation assay - cytotoxicity (XTT), MCF-7 parental; format: cell-based; details: Homo sapiens, MCF7, 96-120 hours of drug exposure
# Procedure: as §3, §4, §5, §6
# [11] = test system: breast MCF-7 cells transduced with PZG190 (AtdCGK); test: Cell proliferation assay - cytotoxicity (XTT), MCF-7 transduced with PZG190; format: cell-based, Human
# Procedure: as §7, §8
# as §3, with “CO2. […]” for “CO2.”
# as §4, with “analog.” for “analog. Each experiment was performed in four replicates. Cell survival was assayed after 96-120 hours of drug exposure, by XTT cell proliferation kit (X) kit II, Roche Cat. No. 1 465 015).”
# as §5, §6
# [12] = test system: breast MCF-7 cells transduced with PZG193 (TomdCGK); test: Cell proliferation assay - cytotoxicity (XTT), MCF-7 transduced with PZG193; format: cell-based, Human
# Procedure: as §7, §8
# as §3, with “CO2. […]” for “CO2.”
# as §4, with “analog.” for “analog. Each experiment was performed in four replicates. Cell survival was assayed after 96-120 hours of drug exposure, by XTT cell proliferation kit (X) kit II, Roche Cat. No. 1 465 015).”
# as §5, §6
# [13] = test system: cells transduced with the pLCXSN vector alone; test: Cell proliferation assay - cytotoxicity (XTT), cells transduced with pLCXSN vector alone; format: cell-based, Human; details: pLCXSN vector alone versus parental
# Procedure: as §7, §8
# as §3, with “CO2. […]” for “CO2.”
# as §4, with “analog.” for “analog. Each experiment was performed in four replicates. Cell survival was assayed after 96-120 hours of drug exposure, by XTT cell proliferation kit (X) kit II, Roche Cat. No. 1 465 015).”
# as §5, §6
smiles,measurement,setting,value
"Nc1ccn([C@@H]2O[C@H](CO)[C@@H](O)C2(F)F)c(=O)n1 [dFdC, 2′,2′-difluorodeoxycytidine]",LD100 for growth of transformed KY895 cells,[1],100 µM
same,killed at fold lower concentrations than cells transformed with pGEX-2T-HSV-TK or pGEX-2T,[2]; KY895 with expression plasmid for TOM-dCK/dGK,10 fold
same,LD100 for growth of transformed KY895 cells,"[2]; transformant pGEX-2T-TOM-dCK/dGK, M9 plates, 24 hours at 37° C.",10 µM
same,killed at fold lower concentrations than cells transformed with pGEX-2T-HSV-TK or pGEX-2T,[3]; KY895 with expression plasmid for TOM-ΔNdCK/dGK,10 fold
same,LD100 for growth of transformed KY895 cells,"[3]; transformant pGEX-2T-TOM-ΔNdCK/dGK, M9 plates, 24 hours at 37° C.",10 µM
same,LD100 for growth of transformed KY895 cells,[4],100 µM
same,LD100 for growth of transformed KY895 cells,[5],100 µM
same,LD100 fold lower than that of HSV1-TK,[6]; KY895 with AT-dCK/dGK versus HSV1-TK,10000 fold
same,LD100 for growth of transformed KY895 cells,"[6]; transformant pGEX-2T-AT-dCK/dGK, M9 plates, 24 hours at 37° C.",0.01 µM
same,LD100 for growth of transformed KY895 cells,[7],100 µM
same,IC50,[8],0.0062 µM
same,IC50,[9],0.0003 µM
same,IC50,[10],3.12 µM
same,IC50,"[11]; Homo sapiens, MCF7, MCF-7 PZG190, 96-120 hours of drug exposure",0.5 µM
same,Sensitivity factor,[11]; MCF-7 PZG190 compared to the parental cell line,6-fold
same,IC50,"[12]; Homo sapiens, MCF7, MCF-7 PZG193, 96-120 hours of drug exposure",0.403 µM
same,Sensitivity factor,[12]; MCF-7 PZG193 compared to the parental cell line,8-fold
same,difference in sensitivity between the parental cell line and cells transduced with the pLCXSN vector alone,[13],less than 1 fold
